Source: ChEMBL document CHEMBL5154900, “Design and Synthesis of Dual EZH2/BRD4 Inhibitors to Target Solid Tumors” (J Med Chem, 2022)
The source made the active and inactive calls. The rule behind the calls is not given here.

Assays:
A549 [1] = test: Induction of apoptosis in human A549 cells assessed as downregulation of Bcl-xl protein at 1 uM inubated for 72 hrs by Western blot analysis; assay type: functional, cell-based
A549 [2] = test: Antitumor activity against human A549 cells assessed as inhibition of colony formation measured after 12 to 20 days by crystal violet staining based analysis; assay type: functional, cell-based; conditions: dose <= 0.4 µM, time 12-20 day, DDE = dose-dependent effect
[3] = Tmax in 12 hr fasted BALB/c mouse at 80 mg/kg, ip measured for 0.083 to 24 hrs by UPLC-MS/MS analysis; assay type: ADME, organism-based; conditions: in vivo, time 0.083-24 hrs
[4] = Half life in 12 hr fasted BALB/c mouse at 80 mg/kg, ip measured for 0.083 to 24 hrs by UPLC-MS/MS analysis; assay type: ADME, organism-based; conditions: in vivo, time 0.083-24 hrs
HCT-116 [5] = test: Antiproliferative activity against human HCT-116 cells assessed as inhibition of cell proliferation at 1 uM incubated for 4 days by cell counter method; assay type: functional, cell-based; conditions: time 4.0 day
A549 [6] = test: Antitumor activity against human A549 cells xenografted in BALB/c mouse assessed as tumor growth inhibition at 80 mg/kg, ip administered 3 times weekly for 40 days and measured every 3 days relative to control; assay type: functional; set-up: scale not given: the % may be the effect or the level left; conditions: time 40 day
HCT-116 [7] = test: Induction of apoptosis in human HCT116 cells assessed as upregulation of p21 protein at 1 uM inubated for 72 hrs by Western blot analysis; assay type: functional, cell-based
[8] = Cmax in 12 hr fasted BALB/c mouse at 80 mg/kg, ip measured for 0.083 to 24 hrs by UPLC-MS/MS analysis; assay type: ADME, organism-based; set-up: dose 80 mg/kg, time upper 24 hrs, time lower 0.083 hrs, route ip; conditions: in vivo
[9] = Toxicity in BALB/c mouse xenografted with human A549 cells assessed as body weight loss at 60 mg/kg, ip administered 6 times weekly for 38 days; assay type: organism-based; conditions: in vivo, 912 h, time 38 day
HCT-116 [10] = test: Effect on ADRB2 mRNA levels in human HCT-116 cells at 5 uM incubated for 48 hrs by RT-qPCR analysis; assay type: functional, cell-based
A549 [11] = test: Effect on ADRB2 mRNA levels in human A549 cells at 5 uM incubated for 48 hrs by RT-qPCR analysis; assay type: functional, cell-based
ASPC1 [12] = test: Induction of apoptosis in human ASPC-1 cells assessed as upregulation of p21 protein at 1 uM inubated for 72 hrs by Western blot analysis; assay type: functional, cell-based
[13] = biological target: T1, Histone-lysine N-methyltransferase EZH2 (Homo sapiens, UniProt Q15910); test: Inhibition of EZH2 in human HCT-116 cells assessed as decrease in H3K27me3 level at 0.05 uM incubated for 72 hrs by Western blot analysis; assay type: cell-based
Target sequence in this assay (Q15910 whole entry, looked up): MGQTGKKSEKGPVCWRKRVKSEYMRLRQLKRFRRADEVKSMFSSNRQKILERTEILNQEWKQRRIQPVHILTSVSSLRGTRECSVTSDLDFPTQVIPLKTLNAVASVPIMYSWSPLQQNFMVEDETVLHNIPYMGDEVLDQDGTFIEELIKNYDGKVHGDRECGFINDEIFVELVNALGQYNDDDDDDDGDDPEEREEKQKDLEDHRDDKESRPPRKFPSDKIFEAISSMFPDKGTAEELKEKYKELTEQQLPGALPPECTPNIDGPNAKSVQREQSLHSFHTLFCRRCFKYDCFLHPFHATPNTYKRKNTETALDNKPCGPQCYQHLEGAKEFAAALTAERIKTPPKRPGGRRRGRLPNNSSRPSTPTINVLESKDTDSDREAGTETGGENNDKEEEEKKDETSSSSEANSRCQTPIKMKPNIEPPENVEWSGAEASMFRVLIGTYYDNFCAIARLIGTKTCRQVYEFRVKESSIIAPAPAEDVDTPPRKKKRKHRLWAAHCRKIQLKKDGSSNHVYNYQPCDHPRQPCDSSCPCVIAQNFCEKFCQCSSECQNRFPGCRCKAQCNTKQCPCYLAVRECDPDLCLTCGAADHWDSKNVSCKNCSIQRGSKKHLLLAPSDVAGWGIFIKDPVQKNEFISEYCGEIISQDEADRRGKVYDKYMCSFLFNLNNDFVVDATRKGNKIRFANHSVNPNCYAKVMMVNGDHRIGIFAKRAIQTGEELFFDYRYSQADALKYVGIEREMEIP

[14] = Tmax in 12 hr fasted BALB/c mouse at 80 mg/kg, po measured for 0.083 to 24 hrs by UPLC-MS/MS analysis; assay type: ADME, organism-based; conditions: in vivo, time 0.083-24 hrs
A549 [15] = test: Inhibition of EZH2/BRD4 in human A549 cell lysate assessed as ternary complex formation at 1 uM preincubated for 24 hrs for 30 mins followed by DSP treatment by co-immunoprecipitation method; assay type: subcellular; conditions: time 24.5 hrs
[16] = biological target: T2, Bromodomain-containing protein 4 (Homo sapiens, UniProt O60885); test: Displacement of fluorescein-labeled JQ1 from His6/TEV cleavage site fused human BRD4 (residues N44 to E168) expressed in Escherichia coli BL21 (DE3) incubated for 60 min by Fluorescence polarization assay
ASPC1 [17] = test: Effect on ADRB2 mRNA levels in human ASPC1 cells at 5 uM incubated for 48 hrs by RT-qPCR analysis; assay type: functional, cell-based
HCT-116 [18] = test: Induction of apoptosis in human HCT116 cells assessed as early apoptotic cells at 20 uM measured after 72 hrs by flow cytometry (reference value: 2.8 %); assay type: functional
[19] = biological target: T2, Bromodomain-containing protein 4; test: Inhibition of BRD4 in human A549 cells assessed as increase in p21 levels incubated for 72 hrs by Western blot analysis; assay type: cell-based; conditions: dose <= 2.5 µM, DDE = dose-dependent effect
HCT-116 [20] = test: Effect on TNFRSF21 mRNA levels in human HCT-116 cells at 5 uM incubated for 48 hrs by RT-qPCR analysis; assay type: functional, cell-based
[21] = Bioavailability in 12 hr fasted BALB/c mouse at 80 mg/kg, po measured for 0.083 to 24 hrs by UPLC-MS/MS analysis; assay type: ADME, organism-based; conditions: in vivo, time 0.083-24 hrs
[22] = AUC in 12 hr fasted BALB/c mouse at 80 mg/kg, po measured for 0.083 to 24 hrs by UPLC-MS/MS analysis; assay type: ADME, organism-based; set-up: time upper 24 hrs, dose 80 mg/kg, time lower 0.083 hrs, route po; conditions: in vivo
A549 [23] = test: Effect on TXINP mRNA levels in human A549 cells at 5 uM incubated for 48 hrs by RT-qPCR analysis; assay type: functional, cell-based
ASPC1 [24] = test: Antitumor activity against human ASPC1 cells assessed as inhibition of colony formation measured after 12 to 20 days by crystal violet staining based analysis; assay type: functional, cell-based; conditions: dose <= 0.1 µM, time 12-20 day, DDE = dose-dependent effect
HCT-116 [25] = test: Effect on TXINP mRNA levels in human HCT-116 cells at 5 uM incubated for 48 hrs by RT-qPCR analysis; assay type: functional, cell-based
ASPC1 [26] = test: Induction of apoptosis in human ASPC-1 cells assessed as downregulation of Bcl-xl protein at 1 uM inubated for 72 hrs by Western blot analysis; assay type: functional, cell-based
HCT-116 [27] = test: Induction of apoptosis in human HCT116 cells assessed as early apoptotic cells at 10 uM measured after 72 hrs by flow cytometry (reference value: 2.8 %); assay type: functional
[28] = Clearance in 12 hr fasted BALB/c mouse at 80 mg/kg, ip measured for 0.083 to 24 hrs by UPLC-MS/MS analysis; assay type: ADME, organism-based; conditions: in vivo, time 0.083-24 hrs
A549 [29] = test: Antitumor activity against human A549 cells xenografted in BALB/c mouse assessed as reduction in tumor weight at 60 mg/kg, ip administered 6 times weekly for 38 days relative to control; assay type: functional; set-up: scale not given: the % may be the effect or the level left; conditions: time 38 day
[30] = biological target: T1, Histone-lysine N-methyltransferase EZH2
Target sequence in this assay (Q15910 whole entry): as the sequence (Q15910 whole entry, looked up) above

[31] = biological target: T1, Histone-lysine N-methyltransferase EZH2; test: Inhibition of EZH2 in human A549 cells assessed as decrease in H3K27me3 level at 0.05 uM incubated for 72 hrs by Western blot analysis; assay type: cell-based
Target sequence in this assay (Q15910 whole entry, looked up): as above

A549 [32] = test: Induction of cell cycle arrest in 24 hr starved human A549 cells assessed as accumulation at G0/G1 phase at 1 uM measured after 48 hrs by PI staining based flow cytometric analysis; assay type: functional
ASPC1 [33] = test: Induction of cell cycle arrest in 24 hr starved human ASPC1 cells assessed as accumulation at G0/G1 phase at 1 uM measured after 48 hrs by PI staining based flow cytometric analysis; assay type: functional
A549 [34] = test: Antitumor activity against human A549 cells xenografted in BALB/c mouse assessed as reduction in tumor volume at 60 mg/kg, ip administered 6 times weekly for 38 days and measured every 3 days relative to control; assay type: functional; set-up: scale not given: the % may be the effect or the level left; conditions: time 38 day
ASPC1 [35] = test: Antitumor activity against human ASPC1 cells xenografted in BALB/c mouse assessed as tumor growth inhibition at 80 mg/kg, ip administered 3 times weekly for 28 days and measured every 3 days relative to control; assay type: functional; set-up: scale not given: the % may be the effect or the level left; conditions: time 28 day
ASPC1 [36] = test: Effect on TNFRSF21 mRNA levels in human ASPC1 cells at 5 uM incubated for 48 hrs by RT-qPCR analysis; assay type: functional, cell-based

CCN(c1cc(-c2ccc(OCCCCCNC(=O)C[C@@H]3N=C(c4ccc(Cl)cc4)c4c(sc(C)c4C)-n4c(C)nnc43)cc2)cc(C(=O)NCc2c(C)cc(C)[nH]c2=O)c1C)C1CCOCC1
Activity (A549 [1]): Active
Activity (A549 [2]): Dde
Tmax [3]: 1 h
half-life [4]: 3.81 h
Activity (HCT-116 [5]): Active
Activity (A549 [6]): 62.3%
Activity (HCT-116 [7]): Active
Cmax [8]: 27.1 µg/mL
Activity [9]: Non-Toxic
Activity (HCT-116 [10]): Active
Activity (A549 [11]): Active
Activity (ASPC1 [12]): Active
inhibition [13]: Active
Tmax [14]: 1 h
inhibition (A549 [15]): Active
IC50 [16]: 0.034 µM
Activity (ASPC1 [17]): Active
Activity (HCT-116 [18]): 72.9%
inhibition [19]: Dde
Activity (HCT-116 [20]): Active
bioavailability [21]: 4.94%
AUC [22]: 13.5 µg·h/mL
Activity (A549 [23]): Active
Activity (ASPC1 [24]): Dde
Activity (HCT-116 [25]): Active
Activity (ASPC1 [26]): Active
Activity (HCT-116 [27]): 63.4%
CL/F [28]: 0.293 L/h/kg
Activity (A549 [29]): 57.8%
IC50 [30]: 0.49 µM
inhibition [31]: Active
Activity (A549 [32]): Active
Activity (ASPC1 [33]): Active
Activity (A549 [34]): 63.4%
Activity (ASPC1 [35]): 38.6%
Activity (ASPC1 [36]): Active
